Values of other authors as cited in PubChem BioAssay AID1259409 (Chemical Carcinogenesis Research Information System (CCRIS), 2018).

Tested on: rodent chemically induced tumor inhibition, incidence and multiplicity
Assay: CCRIS tumor inhibitor studies
Conditions: Carcinogen: DIETHYLNITROSAMINE, 55-18-5, N-METHYL-N-NITROSOUREA, 684-93-5, N-BUTYL-N-(4-HYDROXYBUTYL)NITROSAMINE, 3817-11-6, 1,2-DIM, Carcinogen: DIETHYLNITROSAMINE, 55-18-5, N-METHYL-N-NITROSOUREA, 684-93-5, N-BUTYL-N-(4-HYDROXYBUTYL)NITROSAMINE, 3817-11-6, 1,2-DIM, Dose [Inhibitor]: 0, 0.3% IN DIET FOR 23 WK BEGINNING 1 WK POST CARCINOGEN TREATMENT (STUDY DURATION: 28 WK), Route [Inhibitor]: ORAL, Species: RAT, Strain/Sex: F344/MALE, Dose [Carcinogen]: 100 MG/KG BW DEN ONCE, 20 MG/KG BW MNU ONCE ON DAYS 6,9, AND 12, 0.05% BBN IN DRINKING WATER FOR FIRST TWO WK, 40 MG/KG, Dose [Carcinogen]: 100 MG/KG BW DEN ONCE, 20 MG/KG BW MNU ONCE ON DAYS 6,9, AND 12, 0.05% BBN IN DRINKING WATER FOR FIRST TWO WK, 40 MG/KG, Promoter: NONE USED

## C[C@]12CC[C@H](O)CC1=CC[C@@H]1[C@@H]2CC[C@]2(C)C(=O)CC[C@@H]12
Target Tissue: Type of Lesion: LIVER: HEPATOCELLULAR ADENOMA, HYPERPLASTIC NODULES
  tumour outcome (control, treated, inhibition, significance): 2/20 (10%), 15/20 (75%), -650%, p<0.01
Target Tissue: Type of Lesion: LUNG: ADENOCARCINOMA
  tumour outcome (control, treated, inhibition, significance): 1/20 (5%), 0/20 (0%), 100%, not significant
Target Tissue: Type of Lesion: LUNG: ADENOMA
  tumour outcome (control, treated, inhibition, significance): 8/20 (40%), 5/20 (25%), 38%, not significant
Target Tissue: Type of Lesion: SMALL INTESTINE: ADENOCARCINOMA
  outcome: 2/20 (10%), 0/20 (o%), 100%, not significant
Target Tissue: Type of Lesion: SMALL INTESTINE: ADENOMA
  tumour outcome (control, treated, inhibition, significance): 5/20 (25%), 2/20 (10%), 60%, not significant
Target Tissue: Type of Lesion: THYROID: FOLLICULAR ADENOMA
  tumour outcome (control, treated, inhibition, significance): 6/20 (30%), 1/20 (5%), 83%, p<0.05
Target Tissue: Type of Lesion: THYROID: FOLLICULAR CARCINOMA
  tumour outcome (control, treated, inhibition, significance): 1/20 (5%), 2/20 (10%), -100%, not significant
